In PMC8602401 (Scientific Reports, 2021):

Experiments:
[1] = system: rat plasma protein; assay: EScalate equilibrium shift assay, rat plasma; type: in vitro ADME; details: EScalate equilibrium shift assay
[2] = design: method as in PMID 30429357; details: oral semaglutide in dogs; cited from earlier work
[3] = oral semaglutide with SNAC; cited from earlier work
Description: Previous approaches to engineering peptide therapeutics include substitution with unnatural amino acids to protect proteolytically vulnerable sites, and lipidation to promote reversible serum protein binding and reduced renal clearance[40]–[42]. […] Ala[8] is replaced with artificial α-methyl-L-alanine to protect the peptide against serum DPP-IV and the peptide is mono-lipidated at Lys[26],[43]. Despite these modifications, semaglutide is still susceptible to rapid proteolytic degradation in th ...

[4] = Bioavailability after intraduodenal administration with permeation enhancers in rats; type: in vivo, rat; details: single intraduodenal administration with permeation enhancers (NaCDC and PG), n = 4 per group
Method: Male Sprague Dawley rats (Charles River, Shrewsbury, MA, USA) weighing 250–275 g were housed with ad libitum access to standard chow and water. Test peptides were administered via either an intravenous or a duodenal catheter (4 rats per group) after overnight fasting, and food was returned following 4 h blood collection. Blood was collected via a jugular vein catheter at − 5, 15 and 30 min and 1, 2, 4, 8 and 24 h after intravenous dosing, or for intraduodenal groups at 15 min predose and 0.5, 1, 2, 4, 8, 24 and 48 h postdose. Blood was collected in K2EDTA tubes and kept on wet ice prior to 10 min centrifugation (3000 × g) at 5 °C ± 3 °C. Plasma samples were stored at − 70 °C until analysis.
Fifty or seventy μL aliquots of K2EDTA plasma samples were precipitated with 75% acetonitrile (Sigma-Aldrich) in water (J.T. Baker, Phillipsburg, NJ, USA) (v/v) and centrifuged at 2000 × g. The supernatant was dried under nitrogen at 60 °C, then cooled. Samples were reconstituted in 20% acetonitrile in water (v/v). […] Gradient separation was performed with water and 0.2% formic acid (Thermo Fisher Scientific, Waltham, MA, USA) as mobile phase A, and acetonitrile with 0.2% formic acid as mobile phase B. The method was qualified for the quantification range of 1–1000 ng/mL with accuracy and precision of ± 20%, except for at the lower limit of quantification when the accuracy and precision were ± 25%. Plasma concentrations were subject to noncompartmental analysis consistent with the route of administration using Phoenix WinNonlin (version 7.0, Certara, Princeton, NJ, USA).

[5] = system: FaSSIF/pancreatin; assay: Fasted-state simulated intestinal fluid/pancreatin assay; type: in vitro ADME; details: FaSSIF/USP pancreatin; analytical RP-HPLC
Method: Fresh FaSSIF and USP Pancreatin (FaSSIF/p; Sigma-Aldrich) was prepared according to Galia et al[55]. and used immediately. Peptides were dissolved in pre-warmed FaSSIF before addition of pre-warmed FaSSIF/pancreatin with agitation. Samples were analyzed by analytical RP-HPLC to determine remaining intact peptide by area under the curve.

[6] = Pharmacokinetics of oral tablets in dogs; type: in vivo; details: oral tablets 20 mg/dog, semaglutide: 300 mg SNAC, uncoated, MEDI7219: 100 mg NaCDC and 200 mg PG, pH 5.5 enteric, arithmetic mean (% CV)
[7] = system: dog plasma protein; assay: EScalate equilibrium shift assay, dog plasma; type: in vitro ADME
[8] = system: human plasma protein; assay: EScalate equilibrium shift assay, human plasma; type: in vitro ADME; details: EScalate equilibrium shift assay
Method: (§1) Binding of peptides to human plasma proteins was determined by the EScalate equilibrium shift assay (Sovicell, Leipzig, Germany), using five dilutions of plasma in phosphate buffered saline and an assumed binding protein concentration of 600 µM. Samples were incubated for 1 h at room temperature then centrifuged to remove the HSA-coated beads. Supernatant samples were analyzed using HPLC (3 µm Phenomenex Aeris Widepore XB-C18 stationary phase) coupled to an electrospray ionization quadrupole time-of-flight mass spectrometer in high resolution accurate mass mode (Agilent, Santa Clara, CA, USA). Unbound fractions were calculated from the concentration-dependent shift in binding equilibrium according to fu=1/1+P/KDPlasma , where P is the concentration of the binding protein in plasma and KDPlasma is the dissociation constant of the compound from plasma proteins in solution.

[9] = system: monkey plasma protein; assay: EScalate equilibrium shift assay, monkey plasma; type: in vitro ADME; details: EScalate equilibrium shift assay
Method: [The procedure below names another species; the source lists this species under the same test.] as §1

- peptide bound to plasma proteins, rat [1]: over 97%
- mean bioavailability (%F) [4]: 0.08%
- time to complete degradation in FaSSIF/pancreatin [5]: less than 20 min
- AUC0-inf ([6]; n = 9): 1,440 (45.8) ng·h/mL
- F (bioavailability, systemic fraction) ([6]; n = 9): 0.08 (45.8) %
- F (bioavailability, systemic fraction) ([6]; n = 9, listed as semaglutide): 0.08%
- t½ ([6]; plasma, LC/MS, n = 9): 60.5 (13.6) hours
- peptide bound to plasma proteins, dog ([7]; EScalate equilibrium shift assay): over 97%
- peptide bound to plasma proteins, human [8]: over 97%
- peptide bound to plasma proteins, monkey [9]: over 97%
SMILES: CC[C@H](C)[C@H](NC(=O)[C@H](Cc1ccccc1)NC(=O)[C@H](CCC(=O)O)NC(=O)[C@H](CCCCNC(=O)COCCOCCNC(=O)COCCOCCNC(=O)CC[C@H](NC(=O)CCCCCCCCCCCCCCCCC(=O)O)C(=O)O)NC(=O)[C@H](C)NC(=O)[C@H](C)NC(=O)[C@H](CCC(N)=O)NC(=O)CNC(=O)[C@H](CCC(=O)O)NC(=O)[C@H](CC(C)C)NC(=O)[C@H](Cc1ccc(O)cc1)NC(=O)[C@H](CO)NC(=O)[C@H](CO)NC(=O)[C@@H](NC(=O)[C@H](CC(=O)O)NC(=O)[C@H](CO)NC(=O)[C@@H](NC(=O)[C@H](Cc1ccccc1)NC(=O)[C@@H](NC(=O)CNC(=O)[C@H](CCC(=O)O)NC(=O)C(C)(C)NC(=O)[C@@H](N)Cc1cnc[nH]1)[C@@H](C)O)[C@@H](C)O)C(C)C)C(=O)N[C@@H](C)C(=O)N[C@@H](Cc1c[nH]c2ccccc12)C(=O)N[C@@H](CC(C)C)C(=O)N[C@H](C(=O)N[C@@H](CCCNC(=N)N)C(=O)NCC(=O)N[C@@H](CCCNC(=N)N)C(=O)NCC(=O)O)C(C)C [Semaglutide, semaglutide, reference compound]
- published bioavailability (%F) in dogs [2]: 1.22%
- bioavailability of oral formulation with SNAC [3]: 0.4–1%
- Fraction unbound peptide (%), dog ([7]; EScalate equilibrium shift, five dilutions of plasma in PBS, 1 h at room temperature, HPLC-QTOF MS): 0.37%
